The target of one test is T1, JAK1 (Homo sapiens, UniProt P23458).
T1 construct: purchased Carna Biosciences
Description: JAK1 microfluidic kinase assay (Caliper EZ Reader II, FAM labeled peptide substrate). The test is classed as biochemical. The note with it: IC50 JAK1 (5 nM) (1 m MATP), JAK1 5 nM, 1 mM ATP. An outline of the steps: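 Microfluidic mobility-shift assay on Caliper EZ Reader II, FAM-labelled peptide phosphorylation, in 50 mM HEPES, 0.01% Brij35, 10 mM MgCl2, 2 mM DTT, 1% DMSO; enzyme conditions set for 10% substrate conversion.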

For another test, the target named is T2, JAK2V617F (Homo sapiens, UniProt O60674, V617F).
T2 construct: purchased Carna Biosciences
T2 sequence (O60674 whole entry V617F): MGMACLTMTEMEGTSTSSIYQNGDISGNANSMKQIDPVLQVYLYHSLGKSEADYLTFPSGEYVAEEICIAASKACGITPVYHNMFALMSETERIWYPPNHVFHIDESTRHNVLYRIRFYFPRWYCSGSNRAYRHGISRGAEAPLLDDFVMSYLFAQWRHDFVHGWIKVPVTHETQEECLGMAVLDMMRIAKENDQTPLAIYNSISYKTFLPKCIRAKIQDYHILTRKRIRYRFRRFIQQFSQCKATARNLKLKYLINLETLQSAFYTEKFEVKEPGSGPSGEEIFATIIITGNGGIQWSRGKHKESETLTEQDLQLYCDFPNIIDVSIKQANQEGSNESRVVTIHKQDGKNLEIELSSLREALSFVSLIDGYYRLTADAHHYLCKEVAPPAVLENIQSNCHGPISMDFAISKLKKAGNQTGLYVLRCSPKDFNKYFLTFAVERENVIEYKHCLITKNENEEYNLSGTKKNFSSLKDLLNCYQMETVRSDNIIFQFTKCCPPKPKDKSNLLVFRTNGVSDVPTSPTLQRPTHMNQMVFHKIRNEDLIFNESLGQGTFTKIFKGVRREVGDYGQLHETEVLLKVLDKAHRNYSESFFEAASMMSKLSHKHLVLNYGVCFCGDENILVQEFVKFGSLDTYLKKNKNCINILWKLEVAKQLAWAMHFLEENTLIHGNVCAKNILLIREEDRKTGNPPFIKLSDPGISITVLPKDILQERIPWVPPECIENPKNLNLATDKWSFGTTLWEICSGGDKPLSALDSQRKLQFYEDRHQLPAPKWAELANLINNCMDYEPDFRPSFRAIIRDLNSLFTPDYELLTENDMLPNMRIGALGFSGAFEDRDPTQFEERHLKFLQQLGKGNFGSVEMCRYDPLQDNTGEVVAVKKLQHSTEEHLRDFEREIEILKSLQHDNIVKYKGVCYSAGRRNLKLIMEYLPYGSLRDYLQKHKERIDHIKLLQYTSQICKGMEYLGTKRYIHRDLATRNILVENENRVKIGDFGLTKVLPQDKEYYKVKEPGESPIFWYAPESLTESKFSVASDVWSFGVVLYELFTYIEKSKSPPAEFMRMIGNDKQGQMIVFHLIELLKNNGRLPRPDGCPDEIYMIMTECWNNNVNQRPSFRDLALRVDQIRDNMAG
Description: JAK2V617F microfluidic kinase assay (Caliper EZ Reader II, FAM labeled peptide substrate). Format: biochemical. Particulars: JAK2V617F 2.5 nM, 1 mM ATP. The protocol: Compounds were tested against JAK1, JAK2, JAK2V617F and TYK2. Assay Formats: JAK activity was determined in the reaction buffer 50 mM HEPES, 0.01% Brij35, 10 mM MgCl2, 2 mM DTT by a microfluidic assay. The phosphorylation of a FAM labeled peptide substrate was monitored in the Caliper EZ Reader II (Perkin Elmer). The assay condition for each batch of enzyme (Carna Biosciences) was optimized to obtain 10% conversion rate of peptide substrate. The test compounds were dissolved in DMSO to a stock concentration of 10 mM. 3-fold serially diluted compounds with top concentration of 5 μM were pre-incubated with JAK1, JAK2, JAK2V617F or TYK2 at indicated concentrations for 10 min at ambient temperature. The final DMSO concentration of assay mixture was 1%. […] The reaction was stopped by adding 50 mM EDTA. […] The percent inhibition was calculated by the following formula. % Inhibition=(Conversionmax−Conversionsample)/(Conversionmax−Conversionmin)*100 • Conversionmax means the conversion rate in the positive well without addition of compound • Conversionmin means the conversion rate in the well without addition of enzyme • Conversionsample means the conversion rate of test compounds The dose-response (percent inhibition) curve was plotted and IC50 values were determined by GraphPad software.

Here are results for eleven compounds from patent US12595253B2, “Benzamides of pyrazolylamino-pyrimidinyl derivatives, and compositions and methods thereof” (LYNK PHARMACEUTICALS CO. LTD., priority 2019, dated 2026).

A word on the IC50: it is the concentration that inhibits the measured activity by half.

T1 sequence (P23458 whole entry): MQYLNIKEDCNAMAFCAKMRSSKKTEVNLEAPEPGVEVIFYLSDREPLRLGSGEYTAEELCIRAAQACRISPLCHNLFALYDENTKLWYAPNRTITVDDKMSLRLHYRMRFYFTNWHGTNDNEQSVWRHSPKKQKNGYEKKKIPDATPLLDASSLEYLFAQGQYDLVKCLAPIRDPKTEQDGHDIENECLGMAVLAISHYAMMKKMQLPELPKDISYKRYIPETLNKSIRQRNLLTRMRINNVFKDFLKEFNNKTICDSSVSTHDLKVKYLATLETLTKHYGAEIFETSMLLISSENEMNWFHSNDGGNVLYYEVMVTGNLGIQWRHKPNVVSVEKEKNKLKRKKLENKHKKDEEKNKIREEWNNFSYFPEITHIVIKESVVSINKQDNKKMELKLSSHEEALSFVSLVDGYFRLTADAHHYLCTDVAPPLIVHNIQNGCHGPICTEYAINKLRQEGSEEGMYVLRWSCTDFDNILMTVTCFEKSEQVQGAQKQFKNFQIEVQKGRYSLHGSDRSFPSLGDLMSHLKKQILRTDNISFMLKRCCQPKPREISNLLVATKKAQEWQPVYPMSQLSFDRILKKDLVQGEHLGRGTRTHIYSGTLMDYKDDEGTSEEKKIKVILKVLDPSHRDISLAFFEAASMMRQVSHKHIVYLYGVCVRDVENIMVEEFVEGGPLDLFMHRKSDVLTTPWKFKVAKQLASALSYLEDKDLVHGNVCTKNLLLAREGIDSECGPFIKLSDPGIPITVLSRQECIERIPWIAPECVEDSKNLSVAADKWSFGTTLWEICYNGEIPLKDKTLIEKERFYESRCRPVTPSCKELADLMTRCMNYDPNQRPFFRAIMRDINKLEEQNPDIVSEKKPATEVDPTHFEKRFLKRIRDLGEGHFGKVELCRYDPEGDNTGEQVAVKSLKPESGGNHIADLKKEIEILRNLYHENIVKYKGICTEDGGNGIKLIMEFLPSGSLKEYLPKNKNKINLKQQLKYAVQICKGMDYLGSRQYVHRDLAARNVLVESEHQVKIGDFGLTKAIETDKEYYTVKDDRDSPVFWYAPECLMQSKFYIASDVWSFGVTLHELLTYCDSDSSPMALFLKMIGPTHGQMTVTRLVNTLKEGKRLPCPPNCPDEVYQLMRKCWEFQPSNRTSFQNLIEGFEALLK

For the compound `Cc1cnc(Nc2cnn([C@H]3CC[C@@H](C#N)CC3)c2)nc1-c1ccc(C(=O)NCC#N)cc1` [Example 148, 4-(2-((1-(Cis-4-cyanocyclohexyl)-1H-pyrazol-4-yl)amino)-5-methylpyrimidin-4-yl)-N-(cyanomethyl)benzamide], the values for the IC50 on JAK1 and at JAK2V617F were 13.7 nM and 34.6 nM, respectively.
The like results for `Cc1cnc(Nc2cnn([C@H]3CC[C@@H](C#N)CC3)c2)nc1-c1ccc(C(=O)N[C@@H](C)C#N)cc1` [Example 149, 4-(2-((1-(Cis-4-cyanocyclohexyl)-1H-pyrazol-4-yl)amino)-5-methylpyrimidin-4-yl)-N—((S)-1-cyanoethyl)benzamide] were, in that order, 15 nM and 30.5 nM.
As to `N#CCNC(=O)c1ccc(-c2nc(Nc3cnn(C4CCOCC4)c3)ncc2C(F)(F)F)cc1` [Example 153, N-(cyanomethyl)-4-(2-((1-(tetrahydro-2H-pyran-4-yl)-1H-pyrazol-4-yl)amino)-5-(trifluoromethyl)pyrimidin-4-yl)benzamide], the figures for the IC50 at JAK1 and on JAK2V617F were 235 nM and 283 nM, respectively.
The like results for `Cc1cnc(Nc2cnn(C3CC(F)(F)C3)c2)nc1-c1ccc(C(=O)N[C@@H](C)C#N)cc1` [Example 155, (S)—N-(1-cyanoethyl)-4-(2-((1-(3,3-difluorocyclobutyl)-1H-pyrazol-4-yl)amino)-5-methylpyrimidin-4-yl)benzamide] were, in that order, 480 nM and 1890 nM.
Take `CC(=O)N1CC(n2cc(Nc3ncc(C)c(-c4ccc(C(=O)N[C@@H](C)C#N)cc4)n3)cn2)C1` [Example 157]: the figures for the IC50 against JAK1 and against JAK2V617F were 22.2 nM and 33.1 nM, respectively.
The like results for `CC[C@@H](C#N)NC(=O)c1ccc(-c2nc(Nc3cnn(C4CC4)c3)ncc2C)cc1` [Example 193, (S)—N-(1-cyanopropyl)-4-(2-((1-cyclopropyl-1H-pyrazol-4-yl)amino)-5-methylpyrimidin-4-yl)benzamide] were, in that order, 1.5 nM and 42.6 nM.
The like results for `Cc1cnc(Nc2cnn(C3CC3)c2)nc1-c1ccc(C(=O)N[C@H](C#N)C2CC2)cc1` [Example 194, (S)—N-(cyano(cyclopropyl)methyl)-4-(2-((1-cyclopropyl-1H-pyrazol-4-yl)amino)-5-methylpyrimidin-4-yl)benzamide] were, in that order, 5.65 nM and 33.5 nM.
With `Cc1cnc(Nc2cnn(C3CC3)c2)nc1-c1ccc(C(=O)N[C@H](C#N)C(C)C)cc1` [Example 197, (S)—N-(1-Cyano-2-methylpropyl)-4-(2-((1-cyclopropyl-1H-pyrazol-4-yl)amino)-5-methylpyrimidin-4-yl)benzamide], the IC50 on JAK1 was determined as 4.14 nM; against JAK2V617F, 27.6 nM.
The matching figures for `CC[C@@H](C#N)NC(=O)c1ccc(-c2nc(Nc3cnn(C4CCOCC4)c3)ncc2C)cc1` [Example 201, (S)—N-(1-cyanopropyl)-4-(5-methyl-2-((1-(tetrahydro-2H-pyran-4-yl)-1H-pyrazol-4-yl)amino)pyrimidin-4-yl)benzamide]: 2.22 nM and 3.03 nM.
For the compound `CCC[C@@H](C#N)NC(=O)c1ccc(-c2nc(Nc3cnn(C4CC4)c3)ncc2C)cc1` [Example 202, (S)—N-(1-cyanobutyl)-4-(2-((1-cyclopropyl-1H-pyrazol-4-yl)amino)-5-methylpyrimidin-4-yl)benzamide], the IC50 is 2.97 nM at JAK1 and 23.9 nM against JAK2V617F.
The matching figures for `CC[C@@H](C#N)NC(=O)c1ccc(-c2nc(Nc3cnn(C4CCOCC4)c3)ncc2Cl)cc1` [Example 203, (S)-4-(5-chloro-2-((1-(tetrahydro-2H-pyran-4-yl)-1H-pyrazol-4-yl)amino)pyrimidin-4-yl)-N-(1-cyanopropyl)benzamide]: 5.02 nM and 3.06 nM.
